Tested on: hepatic microsomes
Experiment: antioxidant test with CCl4 as pro-oxidant stimulus and hepatic microsomes as target
Format: biochemical
Settings: CCl4 as pro-oxidant stimulus, hepatic microsomes as target
From the text: They are characterized by excellent antioxidizing and antiinflammatory properties.

## vitamin E
  LC50 (antioxidant activity): 30.0 micrograms per ml
